# Source: EPA's ToxValDB 9.5 (doi:10.2903/j.efsa.2014.3801)
# Where “and” joins values, the source holds several entries; their conditions need not be identical. Identical values can stand only once.
# Assays:
# [1] = system: Rattus norvegicus; details: for LD50: acute; for NOAEL: reproduction developmental
# [2] = system: Daphnia magna; details: chronic/long-term; duration: 21 days
# [3] = system: Oncorhynchus mykiss; details: for LC50: acute, duration: 96 hours, mortality; for NOEC: chronic/long-term
# [4] = system: Tagia sp.; details: for LC50: acute, mortality
# [5] = system: Folsomia candida; details: chronic/long-term
# [6] = system: Apis mellifera; details: acute, mortality
# [7] = system: Anas platyrhynchos; details: reproductive
# [8] = system: Colinus virginianus; details: acute, oral
# [9] = system: Typhlodromus pyri; experiment: LR50; higher = less toxic; details: acute; duration: 14 days; mortality
Compound,LD50 ([1]; F) [mg/kg],NOEC [2] [mg/L],LC50 [3],NOEC ([3]; duration: 21 days) [mg/L],"NOEC ([3]; duration: 69 days, other) [mg/L]",LC50 [4] [mg/kg],NOEC ([4]; chronic/long-term) [mg/kg],"LD50 ([1]; oral, mortality) [mg/kg]",NOAEL [1] [mg/kg-day],NOAEL ([1]; body weight) [mg/kg-day],NOAEL ([1]; organ weight) [mg/kg-day],NOEC [5] [mg/kg],LD50 ([6]; dermal) [µg/piece],"LD50 ([6]; oral, unspecified) [µg/piece]",NOAEL [7] [mg/kg],LD50 [8] [mg/kg],LC50 ([8]; diet) [mg/kg],LR50 [9] [g/ha]
O=c1cc(Cl)[nH]nc1-c1ccccc1 [Pyridafol],1420,5,> 16.2 µg/mL,> 17,0.1,348,3.25,,,,,,,,,,,
CCCCCCCCSC(=O)Oc1cc(Cl)nnc1-c1ccccc1 [Pyridate],,,> 1.01 µg/mL and 1.19 µg/mL,,,400,,> 2000,18.8,165,3.6,112,> 100,> 110,100,1270,> 1250,> 1360
